{
  "source": "patent US20040253265A1",
  "about": "“Biological compositions and methods for treatment of bladder cancer” (priority 2003, published 2004)",
  "key": {"[1]": {"system": "BBN-induced T739 bladder cancer cells (murine bladder transitional cell line BTT739)", "assay": "Tumor growth in T739 mice with transplanted bladder cancer cells (Example 6)", "type": "in vivo, mouse", "settings": "tumor-bearing T739 mice; 30 consecutive days of treatment (yeast 0.3 ml oral once per day; TSPA 1.5 mg/kg/day i.v.); sacrificed on 31st day", "method": "The mice injected with tumor cells were kept for 5 days and then were divided into 4 experimental groups of ten mice per group and one control group. The four experimental groups were triplicated (i.e., using a total of 120 mice in the experimental groups).\nThe mice in group CK2 also started receiving saline on the same day as the other four groups. […] The weight of the mice and the weight of the tumor were determined by standard techniques."}, "[2]": {"system": "BBN-induced T739 bladder cancer cells (murine bladder transitional cell line BTT739)", "assay": "Survival of T739 mice with transplanted bladder cancer cells (Example 7)", "type": "in vivo", "settings": "for Number of live animals remaining in the groups after 30 days of treatment: 30 mice per group", "method": "The following example illustrates the benefit of a biological composition of the invention in a mouse model of human bladder cancer based on a murine bladder transitional cell line BTT739. The survival time of mice after tumor injection and treatment was studied.\n(§1) The biological composition comprising 10^8 cells per ml of activated and conditioned yeast cells of the strain Saccharomyces cerevisiae Hansen strain AS2.4 was prepared by the methods described in Sections 5.1 and subsections therein.\nThe tumors were prepared in a similar manner as described in Sections 6.1.\nThe animals were prepared in a similar manner as described in Section 6.2.\n(§2) The mice injected with tumor cells were kept for 5 days and then were divided into 4 experimental groups of ten mice per group and one control group. The four experimental groups were triplicated (i.e., using a total of 120 mice in the experimental groups). In group 2AY, the mice received 0.3 ml of the biological composition once per day. In group 2NY, the mice received 0.3 ml of the untreated yeast cells once per day. In group 2TSPA, the mice were injected intravenously with 1.5 mg of thiotepa (TSPA) per kg body weight per day. In group 2CK1, the mice received 0.3 ml of physiological saline once per day.\n(§3) The mice received a biological composition, untreated yeast cells, TSPA or saline on the same day as the tumor cells were transplanted. The mice in group CK2 also started receiving saline on the same day as the other four groups. The biological composition, untreated yeast cells or saline were administered orally by a feeding tube and the TSPA by intravenous injection for 30 consecutive days. The mice were observed over 6 months from the day of tumor inoculation and survival was recorded. The weight of the mice and the weight of the tumor were determined by standard techniques.\nEach of the 30 mice in each group received 30 consecutive days of either untreated yeast cells, TSPA, saline or a biological composition of the invention."}, "bladder cell line BBN [3]": {"system": "bladder cell line BBN", "assay": "Tumor growth in Wistar rats with transplanted bladder cancer cells (Example 8)", "type": "in vivo, rat", "settings": "tumor-bearing Wistar rats; 30 consecutive days of treatment (yeast 0.3 ml oral once per day; VCR 3 mg/kg/day i.v.); sacrificed on 31st day", "method": "The four experimental groups were triplicated (i.e., using a total of 120 rats in the experimental groups).\nThe weight of the rats and the weight of the tumor were determined by standard techniques."}, "bladder cell line BBN [4]": {"system": "bladder cell line BBN", "assay": "Survival of Wistar rats with transplanted bladder cancer cells (Example 9)", "type": "in vivo", "settings": "for Number of live animals remaining in the groups after 30 days of treatment: 30 rats per group", "method": "The following example illustrates the benefit of a biological composition of the invention in a Wistar rat model of human bladder cancer. The survival time of the rats after tumor injection and treatment was studied.\nas §1\nThe animals were prepared in a similar manner as described in Section 8.1.\nas §2, with “rats” for “mice”, “2VCR,” for “2TSPA,”, “3” for “1.5”, “[…] (VCR)” for “thiotepa (TSPA)”\nas §3, with “The rats” for “The mice”, “cells, VCR” for “cells, TSPA”, “group 2CK2” for “group CK2”, “cells and” for “cells or”, “the VCR” for “the TSPA”, “the rats” for “the mice”\nEach of the 30 rats in each group received 30 consecutive days of either untreated yeast cells, VCR, saline or a biological composition of the invention."}, "[5]": {"settings": "0 month after cessation of treatment"}, "[6]": {"settings": "1 month after cessation of treatment"}, "[7]": {"settings": "2 months after cessation of treatment"}, "[8]": {"settings": "3 months after cessation of treatment"}, "[9]": {"settings": "4 months after cessation of treatment"}, "[10]": {"settings": "5 months after cessation of treatment"}, "[11]": {"settings": "6 months after cessation of treatment"}, "[12]": {"settings": "mice that survived the 6 months observation after 30 days of treatment"}, "[13]": {"settings": "rats that survived the 6 months observation after 30 days of treatment"}},
  "data": [
    {"smiles": "S=P(N1CC1)(N1CC1)N1CC1", "note": "[TSPA, thiotepa]", "values": [
      {"measurement": "mean weight of mice and standard deviation", "setting": "[1]", "value": "19.5 ± 2.2", "unit": "g"},
      {"measurement": "mean weight of tumor nodules and standard deviation", "setting": "[1]", "value": "3.3 ± 2.1", "unit": "mg"},
      {"measurement": "Number of live animals remaining in the groups after 30 days of treatment", "setting": "[2]; [5]", "value": 30},
      {"measurement": "Number of live animals remaining in the groups after 30 days of treatment", "setting": "[2]; [6]", "value": 24},
      {"measurement": "Number of live animals remaining in the groups after 30 days of treatment", "setting": "[2]; [7]", "value": 11},
      {"measurement": "Number of live animals remaining in the groups after 30 days of treatment", "setting": "[2]; [8]", "value": 7},
      {"measurement": "Number of live animals remaining in the groups after 30 days of treatment", "setting": "[2]; [9]", "value": 2},
      {"measurement": "Number of live animals remaining in the groups after 30 days of treatment", "setting": "[2]; [10]", "value": 0},
      {"measurement": "Number of live animals remaining in the groups after 30 days of treatment", "setting": "[2]; [11]", "value": 0},
      {"measurement": "survival outcome during the experiment", "setting": "[2]; 30 days of treatment, observed over 6 months", "value": "all died during the experiment"},
      {"measurement": "mean weight of mice and standard deviation", "setting": "[2]; [12]", "value": "all animals dead"},
      {"measurement": "mean weight of tumor nodules and standard deviation", "setting": "[2]; [12]", "value": "all animals dead"}
    ]},
    {"smiles": "CC[C@]1(O)C[C@@H]2CN(CCc3c([nH]c4ccccc34)[C@@](C(=O)OC)(c3cc4c(cc3OC)N(C)[C@H]3[C@@](O)(C(=O)OC)[C@H](OC(C)=O)[C@]5(CC)C=CCN6CC[C@]43[C@@H]65)C2)C1", "note": "[VCR, vinblastine]", "values": [
      {"measurement": "mean weight of rats and standard deviation", "setting": "bladder cell line BBN [3]", "value": "191.3 ± 12.4", "unit": "g"},
      {"measurement": "mean weight of tumor nodules and standard deviation", "setting": "bladder cell line BBN [3]", "value": "2.65 ± 1.7", "unit": "g"},
      {"measurement": "Number of live animals remaining in the groups after 30 days of treatment", "setting": "bladder cell line BBN [4]; [5]", "value": 30},
      {"measurement": "Number of live animals remaining in the groups after 30 days of treatment", "setting": "bladder cell line BBN [4]; [6]", "value": 30},
      {"measurement": "Number of live animals remaining in the groups after 30 days of treatment", "setting": "bladder cell line BBN [4]; [7]", "value": 30},
      {"measurement": "Number of live animals remaining in the groups after 30 days of treatment", "setting": "bladder cell line BBN [4]; [8]", "value": 30},
      {"measurement": "Number of live animals remaining in the groups after 30 days of treatment", "setting": "bladder cell line BBN [4]; [9]", "value": 30},
      {"measurement": "Number of live animals remaining in the groups after 30 days of treatment", "setting": "bladder cell line BBN [4]; [10]", "value": 28},
      {"measurement": "Number of live animals remaining in the groups after 30 days of treatment", "setting": "bladder cell line BBN [4]; [11]", "value": 26},
      {"measurement": "mean weight of rats and standard deviation", "setting": "bladder cell line BBN [4]; [13]", "value": "all animals dead"},
      {"measurement": "mean weight of tumor nodules and standard deviation", "setting": "bladder cell line BBN [4]; [13]", "value": "all animals dead"}
    ]}
  ]
}
